Reference: US6319952A, “Compositions and methods for reversibly increasing permeability of biomembranes” (D-Pharm Ltd., priority 1997, dated 2001)

Columns and labels:
[1] = test system: blood-brain barrier (BBB); assay: Reversibility of effect of M 3/14 on BBB permeability (Evan's Blue absorbance of brain extract); type: in vivo, rat (male Sprague-Dawley); conditions: for Quantity EB: 620 nm, per gram wet weight
Protocol: The experiments were carried out on male Sprague-Dawley rats weighing 250-320 gr. They were anesthetized with Rampun-Imalgen. The right common carotid artery was exposed.
The test compounds were dissolved in 0.1M phosphate buffered physiological saline (pH=7.4) at the following test concentrations: 1.6; 8; 20; 40; 200 and 1000 μg/ml. […] The resulting pH of the test solutions was in the range of 8.0 to 8.5, and contols for the pH effect were performed up to pH 9.
The test compound was infused into the right common carotid artery at a rate of 6 ml/min. for 30 s. The control rats were infused with buffer. Evan's Blue (EB) solution at a concentration of […] (2 g Evan's Blue, 0.9 g NaCl in 100 ml water) was injected intravenously 50 minutes prior to the termination of the experiment.
At the end of the experimental time period the animals were perfused with 100 ml of saline solution through the heart and decapitated. The degree of BBB opening, in terms of extravasation of Evan's Blue albumin, was graded on the basis of visual assessment of the degree of staining of the brain ato the method of Rapoport et al. (Rapoport et al., 1980, Amer. J. Physiol. 258, 421-431), and the results are presented in Tables 1 and 2.
A second set of experiments was designed to determine whether the BBB disruption is reversible or irreversible after M 3/14 injection. The extravasation of Evan's Blue-albumin was evaluated at different time points between 3 h and 72 h after M 3/14 injection in concentrations of 8 and 20 μg/ml.
The experiment was conducted on an average of three individual animals per dose per time point. The brains were removed and extracted in dimethylformamide for […]. at room temp. The extract was centrifuged and the supernatant collected and measured for absorbance at 620 nm. The results are presented per gram wet weight of the tissue.

mice = conditions: mouse, in vivo
[2] = test system: bovine brain capillary endothelial cells (actin filaments); assay: Actin staining of endothelial cells (fluorescent microscopy); type: cell-based
Protocol: To investigate the origin of this modification of the permeability, fluorescent microscopy studies were undertaken. Actin filaments were localized with bodipy phallo?din (explanations in section 7.1.).
The medium was removed and filter-grown endothelial cells were washed gently twice with Ringer-Hepes buffer.
Filter-grown endothelial cells were fixed in 4% PAF (paraformadehyde, in PHS buffer supplemented with MgCl2, 2 mM and EGTA, 10 mM) for 15 min at 4° C.
PAF was removed and filter-grown endothelial cells were washed once with PHEMS buffer. The filter-grown endothelial cells can be stored in PHEMS buffer at 4° C.
The filter-grown endothelial cells were cut up in eight pieces in a large PHEMS buffer drop and stored in PHEMS. One piece was permeabilized with acetone at -20° C. for 1 min then stored in PHEMS buffer.
Actin filaments were localized with bodipy phallo?din (Molecular Probes, Inc.). The stain was dissolved in 1.5 ml of methanol (200 units/ml) but was used at 5 units/ml. 5 μl of stock solution was evaporated and redissolved in 200 μl of PHS buffer.
1/8 of permeabilized filter-grown endothelial cells was covered with 25 to 50 μl of stain solution, 30 min at room temperature in darkroom. The filter bearing the endothelial cells was rinsed twice with PHEMS buffer, once with water.
The filter-grown endothelial cells were mounted cell-side up on a microscope slide in mowiol. And was examined on a Leitz DMR microscope using oil immersion objectives.

[3] = test system: ipsilateral hemisphere of the brain; assay: Methotrexate content of brains of rats pretreated with M3,14 (DP-BFA); type: in vivo, rat; conditions: intra-arterial pre-treatment, carotid artery

For `CCCCCCCCCCCCCCC(CCC)C(=O)O` (centres unmarked) [M 3/14, 2-propylhexadecanoic acid], the “Quantity EB” value ([1]; 8 μg/ml, 3 h) was 0.087 absorbance units, the “Quantity EB” value ([1]; 8 μg/ml, 24 h) was 0.074 absorbance units and the “Quantity EB” value ([1]; 20 μg/ml, 3 h) was 0.129 absorbance units. The “Quantity EB” value ([1]; 20 μg/ml, 24 h) was 0.129 absorbance units, the “Quantity EB” value ([1]; 20 μg/ml, 72 h) was 0.015 absorbance units and the “duration of effect on BBB permeability” value ([1]; depending on the dose used (8 and 20 μg/ml)) was “exceed 24 hours”. The “brain edema or general edema” value (mice) was “no brain edema or general edema was observed”, the endothelial cell morphology ([2]; 0.08 mg/ml, 24 hrs) was “significant morphological changes” and the “stress fibers (actin staining)” value ([2]; 0.08 mg/ml, 24 hrs) was “increase in numerous densely packed stress fibers”. For the same compound, the “stress fibers (actin staining)” value ([2]; 0.16 mg/ml 1 hr, then 24 hrs without DP-BFA) was “less densely packed stress fibers”, the endothelial cell morphology ([2]; 0.16 mg/ml, 1 hr) was “significant morphological changes” and the “stress fibers (actin staining)” value ([2]; 0.16 mg/ml, 1 hr) was “increase in numerous densely packed stress fibers”. For the same compound, the interendothelial cell gaps ([2]; 0.16 mg/ml, 24 hrs) was “Interendothelial cell gaps in the monolayer could be seen” and the “penetration of MTX into the ipsilateral hemisphere” value [3] was “significantly increased the penetration of MTX”.
